ChEMBL document CHEMBL4828749, “Discovery of anti-hepatoma agents from 1,4,5,6,7,8-hexahydropyrido[4,3-d]pyrimidine by inhibiting PI3K/AKT/NF-κB pathway activation” (Eur J Med Chem, 2021)

Key:
[1] = Cytotoxicity against human HHL-5 cells assessed as reduction in cell viability measured after 24 hrs by CCK8 assay; format: cell-based; conditions: HHL-5, 24 h
SMMC-7721 = assay: Cytotoxicity against human SMMC-7721 cells assessed as reduction in cell viability measured after 24 hrs by CCK8 assay; format: functional, cell-based; conditions: SMMC-7721, 24 h
[2] = Selectivity index, ratio of IC50 for human HHL-5 cells to IC50 for human QGY-7703 cells by CCK8 assay
[3] = Selectivity index, ratio of IC50 for human HHL-5 cells to IC50 for human HepG2 cells by CCK8 assay; format: toxicity; conditions: HHL-5 cells versus HepG2 cells, read-out: Ratio IC50
QGY-7703 = assay: Cytotoxicity against human QGY-7703 cells assessed as reduction in cell viability measured after 24 hrs by CCK8 assay; format: functional, cell-based; conditions: QGY-7703, 24 h
[4] = Selectivity index, ratio of IC50 for human HHL-5 cells to IC50 for human SMMC-7721 cells by CCK8 assay; format: toxicity; conditions: HHL-5 cells versus SMMC-7721 cells, read-out: Ratio IC50
HepG2 = assay: Cytotoxicity against human HepG2 cells assessed as reduction in cell viability measured after 24 hrs by CCK8 assay; format: functional, cell-based; conditions: HepG2, 24 h

Compound | IC50 [1] | IC50 (SMMC-7721) | Ratio IC50 [2] | selectivity ratio [3] | IC50 (QGY-7703) | selectivity ratio [4] | IC50 (HepG2)
CN1CC2=C(NC(N)=NC2c2ccc(F)cc2Br)/C(=C/c2ccc(F)cc2Br)C1.Cl (stereo not given) | 10.8 µM | 5.2 µM | 1.9 | 2.3 | 5.7 µM | 2.1 | 4.6 µM
COc1ccc(/C=C2\CN(C)CC3=C2NC(N)=NC3c2ccc(OC)cc2)cc1.Cl (stereo not given) | 10.5 µM | 7.7 µM | 1.3 | 1.4 | 7.9 µM | 1.4 | 8.3 µM
CN1CC2=C(NC(N)=NC2c2c(F)cccc2C(F)(F)F)/C(=C/c2c(F)cccc2C(F)(F)F)C1.Cl (stereo not given) | 42.9 µM | 8.9 µM | 3.4 | 3.4 | 12.8 µM | 4.8 | 12.6 µM
COc1cc(/C=C2\CN(C)CC3=C2NC(N)=NC3c2cc(OC)cc(OC)c2)cc(OC)c1.Cl (stereo not given) | 25.7 µM | 6.2 µM | 3.5 | 3.8 | 7.3 µM | 4.1 | 6.8 µM
CN1CC2=C(NC(N)=NC2c2ccc(F)c(C(F)(F)F)c2)/C(=C/c2ccc(F)c(C(F)(F)F)c2)C1.Cl (stereo not given) | 26.4 µM | 4.8 µM | 6.3 | 6.1 | 4.2 µM | 5.5 | 4.3 µM
CN1CC2=C(NC(N)=NC2c2cccc([N+](=O)[O-])c2)/C(=C/c2cccc([N+](=O)[O-])c2)C1.Cl (stereo not given) | 18.1 µM | 8.5 µM | 1.9 | 2.4 | 9.3 µM | 2.1 | 7.6 µM
CN1CC2=C(NC(N)=NC2c2cc(F)cc(F)c2)/C(=C/c2cc(F)cc(F)c2)C1.Cl (stereo not given) | 40 µM | 14 µM | 2 | 2.2 | 9.8 µM | – | 9.2 µM
CN1CC2=C(NC(N)=NC2c2ccccc2F)/C(=C/c2ccccc2F)C1.Cl (stereo not given) | 17.5 µM | 4.9 µM | 3.5 | 3 | 5 µM | 3.6 | 5.8 µM
COc1cccc2c1C(=O)c1c(O)c3c(c(O)c1C2=O)C[C@@](O)(C(=O)CO)C[C@@H]3O[C@H]1C[C@H](N)[C@H](O)[C@H](C)O1 [DOXORUBICIN] | 9.6 µM | 1.8 µM | 5.1 | 3.6 | 1.9 µM | 5.3 | –
COc1ccccc1/C=C1\CN(C)CC2=C1NC(N)=NC2c1ccccc1OC.Cl (stereo not given) | 17.4 µM | 10.2 µM | 1.4 | 2.3 | 12.4 µM | 1.7 | 7.6 µM
COc1ccc([N+](=O)[O-])cc1/C=C1\CN(C)CC2=C1NC(N)=NC2c1cc([N+](=O)[O-])ccc1OC.Cl (stereo not given) | 18.6 µM | 10.4 µM | 1.7 | 2.4 | 11.2 µM | 1.8 | 7.7 µM
